From patent US10106504B2, “Pyridin-3-yl acetic acid derivatives as inhibitors of human immunodeficiency virus replication” (priority 2015, dated 2018)
Where two headings read alike, the source gives them in different places.

System: NL-RLuc virus
Test: Inhibition of HIV replication (NL-RLuc virus, luciferase readout in MT-2 cells)
Assay type: cell-based
Details: Human immunodeficiency virus 1, MT2, 120 h
Source text: Inhibition of HIV Replication:
A recombinant NL-RLuc proviral clone was constructed in which a section of the nef gene from NL4-3 was replaced with the Renilla Luciferase gene. This virus is fully infectious and can undergo multiple cycles of replication in cell culture. In addition, the luciferous reporter provides a simple and easy method for quantitating the extent of virus growth and consequently, the antiviral activity of test compounds. The plasmid pNLRLuc contains the proviral NL-Rluc DNA cloned into pUC18 at the PvuII site. The NL-RLuc virus was prepared by transfection of 293T cells with the plasmid pNLRLuc. Transfections were performed using the LipofectAMINE PLUS kit from Invitrogen (Carlsbad, Calif.) according to the manufacturer and the virus generated was titered in MT-2 cells. For susceptibility analyses, the titrated virus was used to infect MT-2 cells in the presence of compound, and after 5 days of incubation, cells were processed and quantitated for virus growth by the amount of expressed luciferase. Assay media was RPMI 1640 supplemented with 10% heat inactivated fetal bovine serum (FBS), 100 units/ml penicillin G/100 units/ml streptomycin, 10 mM HEPES buffer pH 7.55 and 2 mM L-glutamine. The results from at least 2 experiments were used to calculate the EC50 values. Luciferase was quantitated using the Dual Luciferase kit from Promega (Madison, Wis.). Susceptibility of viruses to compounds was determined by incubation in the presence of serial dilutions of the compound. The 50% effective concentration (EC50) was calculated by using the exponential form of the median effect equation where (Fa)=1/[1+(ED50/drug conc.)^m] (Johnson V A, Byington R T. Infectivity Assay. In Techniques in HIV Research. ed. Aldovini A, Walker BD. 71-76. New York: Stockton Press. 1990). Activity equal to A refers to a compound having an EC50<100 nM, while B and C denote compounds having an EC50 between 100 nM and 1 uM (B) or >1 uM (C).

SMILES | EC50 (read-out: Activity) | EC50 (read-out: EC50 μM)
Cc1nc(C)c([C@H](OC(C)(C)C)C(=O)O)c(-c2ccc3c(c2)CCCO3)c1-c1ccc2c(c1)CCN(Cc1cccc(F)c1)C2 [Example 24, (S)-2-(tert-Butoxy)-2-(4-(chroman-6-yl)-5-(2-(3-fluorobenzyl)-1,2,3,4-tetrahydroisoquinolin-6-yl)-2,6-dimethylpyridin-3-yl)acetic Acid] | < 0.1 µM | –
Cc1cc(F)ccc1CN1CCc2cc(-c3c(N)nc(C)c([C@H](OC(C)(C)C)C(=O)O)c3-c3ccc4c(c3)CCCO4)ccc2C1 [Example 60, (S)-2-(6-Amino-4-(chroman-6-yl)-5-(2-(4-fluoro-2-methylbenzyl)-1,2,3,4-tetrahydroisoquinolin-6-yl)-2-methylpyridin-3-yl)-2-(tert-butoxy)acetic Acid] | < 0.1 µM | 0.003 µM
Cc1nc(N)c(-c2ccc(OCCc3ccc(F)cc3)cc2)c(-c2ccc3c(c2)CCCO3)c1[C@H](OC(C)(C)C)C(=O)O [Example 59, (S)-2-(6-Amino-4-(chroman-6-yl)-5-(4-(4-fluorophenethoxy)phenyl)-2-methylpyridin-3-yl)-2-(tert-butoxy)acetic Acid] | < 0.1 µM | –
Cc1nc(CN(C)CC2CCOCC2)c(-c2ccc(OCCc3ccc(F)cc3)cc2)c(-c2ccc3c(c2)CCCO3)c1[C@H](OC(C)(C)C)C(=O)O [Example 13, (S)-2-(tert-Butoxy)-2-(4-(chroman-6-yl)-5-(4-(4-fluorophenethoxy)phenyl)-2-methyl-6-((methyl((tetrahydro-2H-pyran-4-yl)methyl)amino)methyl)pyridin-3-yl)acetic Acid] | < 0.1 µM | –
Cc1nc(C)c([C@H](OC(C)(C)C)C(=O)O)c(-c2ccc3c(c2)CCCO3)c1-c1ccc2c(c1)CCN(C(=O)OCc1ccccc1)C2 [Example 19, (S)-2-(5-(2-((Benzyloxy)carbonyl)-1,2,3,4-tetrahydroisoquinolin-6-yl)-4-(chroman-6-yl)-2,6-dimethylpyridin-3-yl)-2-(tert-butoxy)acetic Acid] | < 0.1 µM | 0.069 µM
Cc1cc(N2CCc3cc(-c4c(CCCC5CCOCC5)nc(C)c([C@H](OC(C)(C)C)C(=O)O)c4-c4ccc5c(c4)CCCO5)ccc3C2)ncn1 [Example 67, (S)-2-(tert-Butoxy)-2-(4-(chroman-6-yl)-2-methyl-5-(2-(6-methylpyrimidin-4-yl)-1,2,3,4-tetrahydroisoquinolin-6-yl)-6-(3-(tetrahydro-2H-pyran-4-yl)propyl)pyridin-3-yl)acetic Acid] | < 0.1 µM | –
Cc1nc(C)c([C@H](OC(C)(C)C)C(=O)O)c(-c2cc(F)c3c(c2C)CCCO3)c1-c1cc(F)c2c(c1C)CCCO2 [Example 1, (2S)-2-(4,5-Bis(8-fluoro-5-methylchroman-6-yl)-2,6-dimethylpyridin-3-yl)-2-(tert-butoxy)acetic Acid] | > 1 µM | 1.74 µM
Cc1nc(C)c([C@H](OC(C)(C)C)C(=O)O)c(-c2ccc3c(c2)CCCO3)c1-c1ccc2c(c1)CCN(Cc1ccc(F)cc1)C2 [Example 20, (S)-2-(tert-Butoxy)-2-(4-(chroman-6-yl)-5-(2-(4-fluorobenzyl)-1,2,3,4-tetrahydroisoquinolin-6-yl)-2,6-dimethylpyridin-3-yl)acetic Acid] | < 0.1 µM | –
Cc1nc(C)c([C@H](OC(C)(C)C)C(=O)O)c(-c2ccc3c(c2)CCCO3)c1-c1ccc2c(c1)CCN(Cc1ccccc1F)C2 [Example 23, (S)-2-(tert-Butoxy)-2-(4-(chroman-6-yl)-5-(2-(2-fluorobenzyl)-1,2,3,4-tetrahydroisoquinolin-6-yl)-2,6-dimethylpyridin-3-yl)acetic Acid] | < 0.1 µM | –
COc1nccc(N2CCc3cc(-c4c(N)nc(C)c([C@H](OC(C)(C)C)C(=O)O)c4-c4ccc5c(c4)CCCO5)ccc3C2)n1 [Example 64, (S)-2-(6-Amino-4-(chroman-6-yl)-5-(2-(2-methoxypyrimidin-4-yl)-1,2,3,4-tetrahydroisoquinolin-6-yl)-2-methylpyridin-3-yl)-2-(tert-butoxy)acetic Acid] | < 0.1 µM | –
Cc1nc(CNCC2CCOCC2)c(-c2ccc(OCCc3ccc(F)cc3)cc2)c(-c2ccc3c(c2)CCCO3)c1[C@H](OC(C)(C)C)C(=O)O [Example 11, (S)-2-(tert-Butoxy)-2-(4-(chroman-6-yl)-5-(4-(4-fluorophenethoxy)phenyl)-2-methyl-6-((((tetrahydro-2H-pyran-4-yl)methyl)amino)methyl)pyridin-3-yl)acetic Acid] | < 0.1 µM | –
Cc1nc(CN(C)C)c(-c2ccc(OCCc3ccc(F)cc3)cc2)c(-c2ccc3c(c2)CCCO3)c1[C@H](OC(C)(C)C)C(=O)O [Example 10, (S)-2-(tert-Butoxy)-2-(4-(chroman-6-yl)-6-((dimethylamino)methyl)-5-(4-(4-fluorophenethoxy)phenyl)-2-methylpyridin-3-yl)acetic Acid] | < 0.1 µM | –
Cc1cccc(F)c1CN1CCc2cc(-c3c(CN(C)CC4CCOCC4)nc(C)c([C@H](OC(C)(C)C)C(=O)O)c3-c3ccc4c(c3)CCCO4)ccc2C1 [Example 34, (S)-2-(tert-Butoxy)-2-(4-(chroman-6-yl)-5-(2-(2-fluoro-6-methylbenzyl)-1,2,3,4-tetrahydroisoquinolin-6-yl)-2-methyl-6-((methyl((tetrahydro-2H-pyran-4-yl)methyl)amino)methyl)pyridin-3-yl)acetic Acid] | < 0.1 µM | –
Cc1cccc(CN2CCc3cc(-c4c(C)nc(C)c([C@H](OC(C)(C)C)C(=O)O)c4-c4ccc5c(c4)CCCO5)ccc3C2)c1F [Example 26, (S)-2-(tert-Butoxy)-2-(4-(chroman-6-yl)-5-(2-(2-fluoro-3-methylbenzyl)-1,2,3,4-tetrahydroisoquinolin-6-yl)-2,6-dimethylpyridin-3-yl)acetic Acid] | < 0.1 µM | –
Cc1cccc(F)c1CN1CCc2cc(-c3c(C)nc(C)c([C@H](OC(C)(C)C)C(=O)O)c3-c3cc(F)c4c(c3C)CCCO4)ccc2C1 [Example 39, (2S)-2-(tert-Butoxy)-2-(4-(8-fluoro-5-methylchroman-6-yl)-5-(2-(2-fluoro-6-methylbenzyl)-1,2,3,4-tetrahydroisoquinolin-6-yl)-2,6-dimethylpyridin-3-yl)acetic Acid] | < 0.1 µM | 0.024 µM
CCOc1ccc(-c2c(C)nc(C)c([C@H](OC(C)(C)C)C(=O)O)c2-c2cc(F)c3c(c2C)CCCO3)cc1 [Example 7, (2S)-2-(tert-Butoxy)-2-(5-(4-ethoxyphenyl)-4-(8-fluoro-5-methylchroman-6-yl)-2,6-dimethylpyridin-3-yl)acetic Acid] | 0.1 to 1 µM | 0.545 µM
Cc1nc(C)c([C@H](OC(C)(C)C)C(=O)O)c(-c2ccc3c(c2)CCCO3)c1-c1ccc2c(c1)CCN(C)C2 [Example 22, (S)-2-(tert-Butoxy)-2-(4-(chroman-6-yl)-2,6-dimethyl-5-(2-methyl-1,2,3,4-tetrahydroisoquinolin-6-yl)pyridin-3-yl)acetic acid] | 0.1 to 1 µM | 0.628 µM
Cc1cc(N2CCc3cc(-c4c(C)nc(C)c([C@H](OC(C)(C)C)C(=O)O)c4-c4ccc5c(c4)CCCO5)ccc3C2)ncn1 [Example 55, (S)-2-(tert-Butoxy)-2-(4-(chroman-6-yl)-2,6-dimethyl-5-(2-(6-methylpyrimidin-4-yl)-1,2,3,4-tetrahydroisoquinolin-6-yl)pyridin-3-yl)acetic Acid] | < 0.1 µM | –
Cc1nc(C)c([C@H](OC(C)(C)C)C(=O)O)c(-c2ccc3c(c2)CCCO3)c1-c1ccc2c(c1)CCN(Cc1ccccc1Cl)C2 [Example 27, (S)-2-(tert-Butoxy)-2-(5-(2-(2-chlorobenzyl)-1,2,3,4-tetrahydroisoquinolin-6-yl)-4-(chroman-6-yl)-2,6-dimethylpyridin-3-yl)acetic Acid] | < 0.1 µM | 0.005 µM
Cc1nc(C)c([C@H](OC(C)(C)C)C(=O)O)c(-c2ccc3c(c2)CCCO3)c1-c1ccc2c(c1)CCN(CCCc1ccc(F)cc1)C2 [Example 31, (S)-2-(tert-Butoxy)-2-(4-(chroman-6-yl)-5-(2-(3-(4-fluorophenyl)propyl)-1,2,3,4-tetrahydroisoquinolin-6-yl)-2,6-dimethylpyridin-3-yl)acetic Acid] | < 0.1 µM | –
Cc1nc(C)c([C@H](OC(C)(C)C)C(=O)O)c(-c2ccc3c(c2)CCCO3)c1-c1ccc(OCCc2ccc(F)cc2F)cc1 [Example 44, (S)-2-(tert-Butoxy)-2-(4-(chroman-6-yl)-5-(4-(2,4-difluorophenethoxy)phenyl)-2,6-dimethylpyridin-3-yl)acetic Acid] | < 0.1 µM | –
Cc1nc(C)c([C@H](OC(C)(C)C)C(=O)O)c(-c2cc(F)c3c(c2C)CCCO3)c1-c1ccc(OCCc2ccc(F)cc2)cc1 [Example 6, (2S)-2-(tert-Butoxy)-2-(4-(8-fluoro-5-methylchroman-6-yl)-5-(4-(4-fluorophenethoxy)phenyl)-2,6-dimethylpyridin-3-yl)acetic Acid] | < 0.1 µM | –
